Source: ChEMBL document CHEMBL4130531 (ACS Med Chem Lett, 2017)
Values after ≈ are worked out from the molar mass of the structure shown.

What was measured:
[1] = Solubility of the compound at pH 6.8; type: physicochemical; details: buffer
[2] = AUC in Sprague-Dawley rat at 10 mg/kg, po by HLPC-MS analysis; type: ADME, organism-based; details: in vivo
[3] = Lipophilicity, log D of the compound at pH 7.4; type: physicochemical; details: buffer
Mus musculus [4] = assay: Time at which unbound plasma concentration stays above cellular IDH1 R132H mutant inhibitory IC50 in HSD athymic nude mouse xenografted with human HCHZ2H1 cells; type: ADME, organism-based; details: in vivo
[5] = AUC (0 to 12 hrs) in nude mouse xenografted with human HMEX2838 cells at 30 mg/kg, po bid administered via gavage by LC-MS/MS analysis; type: ADME, organism-based; parameters: time < 12 hr, dose 30 mg/kg, route oral; details: in vivo
[6] = AUC (0 to 24 hrs) in nude mouse xenografted with human HMEX2838 cells at 300 mg/kg, po administered via gavage as single dose by LC-MS/MS analysis; type: ADME, organism-based; parameters: dose 300 mg/kg, time < 24 hr, route oral; details: in vivo
[7] = AUC (0 to 12 hrs) in nude mouse xenografted with human HMEX2838 cells at 100 mg/kg, po bid administered via gavage by LC-MS/MS analysis; type: ADME, organism-based; parameters: time < 12 hr, dose 100 mg/kg, route oral; details: in vivo
[8] = AUC (0 to 8 hrs) in nude mouse xenografted with human HMEX2838 cells at 100 mg/kg, po administered via gavage as single dose by LC-MS/MS analysis; type: ADME, organism-based; parameters: time < 8 hr, dose 100 mg/kg, route oral; details: in vivo
in vivo [9] = details: C57BL/6, mouse, brain and plasma, po, 30 mg/kg
Mus musculus [10] = assay: Unbound AUC (0 to 48 hrs) in HSD athymic nude mouse xenografted with human HCHZ2H1 cells at 200 mg/kg, po administered as single dose by LC-MS/MS analysis; type: ADME, organism-based; details: in vivo
[11] = AUC in Sprague-Dawley rat brain at 5 mg/kg, iv by HPLC-MS analysis; type: ADME, organism-based
in vivo [12] = details: Sprague-Dawley, rat, brain and plasma, iv, 5 mg/kg
[13] = AUC (0 to 12 hrs) in nude mouse xenografted with human HMEX2838 cells at 300 mg/kg, po bid administered via gavage by LC-MS/MS analysis; type: ADME, organism-based; parameters: time < 12 hr, dose 300 mg/kg, route oral; details: in vivo
[14] = AUC (0 to 48 hrs) in HSD athymic nude mouse xenografted with human HCHZ2H1 cells at 200 mg/kg, po administered as single dose by LC-MS/MS analysis; type: ADME, organism-based; parameters: dose 200 mg/kg, time < 48 hr, route oral; details: in vivo
[15] = Fraction absorbed of compound by PAMPA; type: ADME; details: read-out: Fabs
[16] = AUC (0 to 8 hrs) in nude mouse xenografted with human HMEX2838 cells at 30 mg/kg, po administered via gavage as single dose by LC-MS/MS analysis; type: ADME, organism-based; parameters: dose 30 mg/kg, time < 8 hr, route oral; details: in vivo
[17] = AUC in Sprague-Dawley rat plasma at 5 mg/kg, iv by HPLC-MS analysis; type: ADME, organism-based
[18] = Cmax in HSD athymic nude mouse xenografted with human HCHZ2H1 cells at 200 mg/kg, po administered as single dose by LC-MS/MS analysis; type: ADME, organism-based; parameters: dose 200 mg/kg, route oral; details: in vivo
[19] = Ratio of drug level in brain to plasma in C57BL/6 mouse at 30 mg/kg, po measured at 1 hr by HPLC-MS analysis; type: ADME, organism-based; details: brain and plasma, read-out: BPR
Mus musculus [20] = assay: Unbound Cmax in HSD athymic nude mouse xenografted with human HCHZ2H1 cells at 200 mg/kg, po administered as single dose by LC-MS/MS analysis; type: ADME, organism-based; details: in vivo
[21] = Ratio of drug level in brain to plasma in Sprague-Dawley rat at 5 mg/kg, iv by HPLC-MS analysis; type: ADME, organism-based; details: brain and plasma, read-out: BPR

Compound `Cc1cc(-c2ccc([C@H](C)Nc3nccc(N4C(=O)OC[C@@H]4C(C)C)n3)nc2)ccn1` has a solubility [1] of 430 µM (≈ 180 µg/mL).

In the case of `Cc1cc(-c2cnc([C@H](C)Nc3nccc(N4C(=O)OC[C@@H]4C(C)C)n3)nc2)ccc1F`, the AUC [2] was 0.2 µM·h and the logD [3] was 3.4.

With `Cc1cc(-c2cnc([C@H](C)Nc3nccc(N4C(=O)OC[C@@H]4C(C)C)n3)cn2)ccc1F` the solubility [1] was under 5 µM.

With `Cc1cc([C@H](C)Nc2nccc(N3C(=O)OC[C@@H]3[C@H](C)F)n2)ncc1-c1ccnc(C(F)(F)F)c1` the Time (Mus musculus [4]) was over 12 h, the AUC at 12 h [5] was 5.4 µM·h and the AUC(0-t) at 24 h [6] was 212 µM·h. The AUC at 12 h [7] was 19.2 µM·h, the AUC [2] was 6.2 µM·h and the AUC(0-t) at 8 h [8] was 71.9 µM·h. For the same compound, the Kp uu at 1 h (in vivo [9]) was 0.17, the solubility [1] was 130 µM (≈ 63.8 µg/mL) and the fAUC (Mus musculus [10]) was 17.3 µM·h. It also gave an AUC [11] of 3.4 µM·h, a Kp uu (in vivo [12]) of 0.18 and an AUC at 12 h [13] of 88.9 µM·h. For the same compound, the AUC(0-t) at 48 h [14] was 149 µM·h, the Fa [15] was 99.3% and the AUC(0-t) at 8 h [16] was 10.1 µM·h. It also gave an AUC [17] of 5.5 µM·h, a Cmax [18] of 16.2 µM and a logD [3] of 2.8. For the same compound, the Kp at 1 h [19] was 0.29, the fCmax (Mus musculus [20]) was 1.88 µM and the Kp [21] was 0.61.

With `CC(C)[C@H]1COC(=O)N1c1ccnc(N[C@@H](C)c2ccc(-c3ccnc(C(F)(F)F)c3)cn2)n1` the AUC [2] was 1.6 µM·h.
